Measured values taken from patent US10590137B2, “Mercaptopurine hemihydrate” (THE REGENTS OF THE UNIVERSITY OF MICHIGAN, priority 2016, dated 2020).
Where two headings read alike, the source gives them in different places. Values belong to the compound of their own block, whether it stands above or below them.

How the values were obtained:
[1] = pharmacokinetic studies in rats (oral suspension vs IV); assay type: in vivo, Male Sprague-Dawley rats; settings: rat; for % F (bioavailability): oral 30 mg/kg vs IV 15 mg/kg monohydrate; for AUC / Cmax / Tmax: oral gavage 30 mg/kg suspension, 30 mg/kg; for AUC / Cmax: plasma
Description: The bioavailability of the three forms was determined by comparison of suspension and intravenous administration in order to quantify the effect. […] Since the Tmax of the hemihydrate was much higher than the other two forms, it seems more compound was able to be absorbed overall even though over a somewhat longer time period, whereas the monohydrate and anhydrate were limited due to the solubility of the monohydrate form (FIG. 3).
Pharmacokinetic studies in rats were performed at Avastus Preclinical Services, Cambridge, Mass. All procedures were performed in accordance with the Guide for Care and Use of Laboratory Animals and were approved by the Avastus Institutional Animal Care and Use Committee. Male Sprague-Dawley rats weighing 200-300 g were dosed with mercaptopurine via oral gavage with a dosing volume of 5 mL/kg and a dose of 30 mg mercaptopurine form/kg or via IV administration at a dosing volume of 5 mL/kg and a dose of 15 mg mercaptopurine monohydrate/kg. Each group consisted of three rats, with one oral administration group for each form of mercaptopurine, and one IV administration group using the monohydrate form for reference. Blood samples were collected at time points of 15, 30, 60, 120, 240 minutes as well as 8 and 24 hours post dose. An additional time point at 5 minutes was taken for the IV administration group. Samples were centrifuged and the decanted plasma samples were stored at −80° C. until analysis.
The plasma samples were analyzed via LC-MS/MS using an Agilent 6410 mass spectrometer coupled with an Agilent 1200 HPLC and a CTC PAL chilled autosampler, all controlled by MassHunter software (Agilent). All plasma samples were crashed with three volumes of methanol containing an […] and centrifuged to remove precipitated protein before analysis. Samples were compared to a calibration curve prepared in rat blank plasma. Separation was performed on a C18 reverse phase HPLC column (Kinetex PFP, 2.6 μm, 2.1×50 mm) using an acetonitrile-water gradient system and peaks were analyzed by MS using ESI ionization in MRM mode. Peak area ratio to internal standard is used to interpolate plasma concentration for each sample from the calibration curve of peak area internal standard ratio to concentration. Pharmacokinetic parameters were fit using a custom WinNonlin analysis with PO dosing analysis. Area under the curve (AUC) for mercaptopurine was also calculated using the custom WinNonlin analysis. Cmax (maximum plasma concentration) and Tmax (time to reach maximum plasma concentration) were determined by visual inspection of the experimental data. The bioavailability (% F) was calculated from the following equation:
[formula] Frel was calculated with respect to the monohydrate form.

[2] = stability to hydration: slurry conversion monitored by non-contact Raman probe; assay type: physicochemical; settings: aqueous slurry; for time to convert to the monohydrate form: full conversion
Description: In order to determine the stability to hydration, slurries of the anhydrate and hemihydrate forms were monitored using a non-contact Raman probe.
Raman spectra during slurry conversion were collected using a Kaiser Optical Systems Raman Rxn Microprobe equipped with a Multi-Rxn non-contact optic, 785 nm laser, and a multi-channel CCD detector. Spectra were collected with a range of 150-3425 cm^−1 and then analyzed using the HoloGRAMS 4.1 software package (Kaiser). Calibration was performed using a HoloLab Calibration Accessory and a cyclohexane standard.

[3] = maximum solubility in water by turbidity measurements (CrystalBreeder); settings: at 37° C., Van't Hoff
Description: (§1) Solubility measurements were taken using a CrystalBreeder system (Technobis). Known amounts of solid compound and water were added to 0.3 mL clear round bottom vials equipped with a stir bar. The vials were sealed with a Teflon coated rubber crimped caps to prevent evaporation of solvent. Vials were loaded into one of the independently heated aluminum reactor blocks and turbidity measurements were taken using an LED light source and detector to measure particles in solution. Samples were heated to 85° C. at a rate of 0.2° C./min, held at 85° C. for 30 minutes, and then cooled to 0° C. at a rate of 0.2° C./min. Clear points were calculated based on the temperature at which 100% transmittance of solution was reached. Van't Hoff plots of concentration vs. time were produced from the data using CrystalClear software (Technobis) to determine the solubility of each form at different temperatures.

[4] = thermally-induced phase transitions by DSC and variable temperature PXRD; assay type: physicochemical; settings: for loss of crystallinity corresponding with a loss of water: variable temperature PXRD, conversion to anhydrate
Description: DSC analysis and variable temperature PXRD were used to analyse the thermally-induced phase transitions of the compounds.
Variable temperature PXRD data were collected on a Rigaku SmartLab diffractometer using Cu-Kα radiation (λ=1.54187 Å) and operating at 40 kV and 44 mA. Samples were placed on a glass cover slip on top of a copper block that was heated at 2° C./min using a J-KEM Model 210 temperature controller. The setup was covered with a housing of Kapton to keep heat in but allow X-rays to penetrate. The spectrum was collected by scanning […] from 20 to 29° with a step size of 0.01° and a step speed of 0.1 seconds. Powder patterns were processed using Jade 8 XRD Pattern Processing, Identification & Quantification analysis software.^1
Thermograms of the monohydrate and hemihydrate forms were recorded on a TA Instruments Q20 DSC. […] Calibration of the instrument was performed using an indium standard. Thermograms were analyzed using TA Universal Analysis 2000, V 4.5A.

some cancer lines = settings: cited from earlier work
[5] = at 37° C.; background statement; cited from earlier work
physchem = settings: water, 37 °C, thermodynamic from solid
Description: as §1

- % F (bioavailability) [1]: 2.9%
- AUC [1]: 430 ± 30 ng·h/mL
- Cmax [1]: 260 ± 10 ng/mL
- Tmax [1]: 49.8 ± 17.4 min
- time to convert to the monohydrate form [2]: 2 to 5 h
- average solubility in water [3]: 400 µg/mL
Compound: Sc1ncnc2nc[nH]c12 [Anhydrate, mercaptopurine]

- % F (bioavailability) ([1]; hemihydrate): 3.8%
- AUC ([1]; hemihydrate): 570 ± 120 ng·h/mL
- Cmax ([1]; hemihydrate): 280 ± 110 ng/mL
- Tmax ([1]; hemihydrate): 100 ± 34.8 min
- time to convert to the monohydrate form ([2]; hemihydrate): approximately 70 hours
- time at which conversion to the monohydrate begins ([2]; onset): approximately 5 hours
- dehydration temperature (water loss, endothermic event) ([4]; DSC / variable temperature PXRD): 240 °C
- loss of crystallinity corresponding with a loss of water ([4]; hemihydrate): does not show any loss of crystallinity
- average solubility in water ([3]; hemihydrate): 390 µg/mL
Compound: Sc1ncnc2nc[nH]c12 [Hemihydrate, mercaptopurine hemihydrate]

Compound: S=c1[nH]cnc2nc[nH]c12 [Mercaptopurine]
- IC50 (some cancer lines): 500 nM

- Cmax ([1]; male, Sprague-Dawley, po, read-out: Cmax): 230 ± 50 ng/mL
- % F (bioavailability) ([1]; monohydrate): 1.4%
- AUC ([1]; monohydrate): 210 ± 60 ng·h/mL
- Tmax ([1]; monohydrate): 49.8 ± 17.4 min
- Tmax of merged endothermic event (water loss and loss of crystallinity) ([4]; open DSC pan): 177 °C
- loss of crystallinity event ([4]; sealed DSC pan): ~190 °C
- water loss event ([4]; sealed DSC pan): ~140 °C
- loss of crystallinity corresponding with a loss of water ([4]; monohydrate): ~160 °C
- solubility (physchem): 249 µg/mL
Compound: Sc1ncnc2nc[nH]c12 [Monohydrate, mercaptopurine monohydrate]
- water solubility [5]: 249 µg/mL
